Results taken from PMC6934184, “Selective DNA-PKcs inhibition extends the therapeutic index of localized radiotherapy and chemotherapy” (The Journal of Clinical Investigation, 2019).

System: NHEJ-mediated DSB repair in HEK293T cells
Experiment: NHEJ plasmid repair assay
Assay type: cell-based, Human
Details: 1 μM; 24 hours; AfeI or ScaI linearized plasmid
Experimental: The ability of NU5455 to impair the nonhomologous end joining (NHEJ) ability of cells was assessed using a modified version of a DNA repair assay developed by Nagel et al. ([52]), which measures the repair of a plasmid encoding blue fluorescent protein (BFP) and GFP linearized by either an ScaI or an AfeI restriction digestion. Full experimental details are given in Supplemental Methods.
Membranes were then washed in TBST and incubated with HRP-conjugated goat anti-mouse or anti-rabbit antibodies (P0447 and P0448 respectively, Dako) in 5% (w/v) milk/TBST at room temperature for 1-2 hours. Conjugates were detected using Clarity Western ECL Substrate (BioRad) and chemiluminescence imaged using the Fuji LAS-3000 Luminescent Image Analyzer System (Fujifilm).
Densitometry analysis was performed using AIDA Image Analyzer software (Raytest). The intensity of all bands was determined following a background subtraction, and the level of pDNA-PKcs stimulation determined by subtracting basal unstimulated pDNA-PKcs Ser2056 levels. pDNA-PKcs Ser2056 band intensity was calculated relative to total DNA-PKcs band intensity, and is given as percentage expression relative to irradiated, DMSO-treated cells. […]
violet laser with 440/50 emission filter to detect blue fluorescence using the VL1 channel. […]
Data were analyzed by FCS Express 6 Flow Research Edition (De Novo Software). […]

## CN(C(=O)CN1CCOCC1)c1ccc2sc3c(-c4cccc5c(=O)cc(N6CC7CCC(C6)O7)oc45)cccc3c2c1 [NU5455]
  repair of DNA-DSBs (NHEJ plasmid repair): inhibit the repair of DNA-DSBs
